Laboratory results reported in patent US11766451B2, “Utilizing polymers and antibiotics to enhance antimicrobial activity and inhibit antibiotic resistance” (International Business Machines Corporation, priority 2018, dated 2023).
“Also recorded” adds a separate entry of the source.

Experiments:
A. baumannii (BAA-1709) = assay: Checkerboard / broth microdilution MIC; type: cell-based, Acinetobacter baumannii; conditions: for Change of antibiotic MIC as polymer concentration increased from 1/16×MICp to ½×MICp: with example polycarbonate 200 (table 500); for MIC of rifampicin at 1/2 × MIC of adjuvant: rifampicin with the labelled adjuvant at 1/2 × its MIC; for MIC of rifampicin at 1/4 × MIC of adjuvant: rifampicin with the labelled adjuvant at 1/4 × its MIC; for MIC of rifampicin at 1/8 × MIC of adjuvant: rifampicin with the labelled adjuvant at 1/8 × its MIC
Description: To evaluate antibacterial activity of antimicrobial polymer-antibiotic 306 combination therapies, the checkerboard method was used to create chart 400. By using this method, the minimum inhibitory concentration (“MIC”) of antibiotics 306, antimicrobial polymers (e.g., characterized by the first chemical structure 100 and/or the second chemical structure 102), and/or antibiotics 306/antimicrobial polymers (e.g., characterized by the first chemical structure 100 and/or the second chemical structure 102) combination at varying polymer concentrations can be determined. MIC was measured based on the broth microdilution method. 50 microliters (“μL”) of the example polycarbonate 200 at a serious of concentrations (micrograms per milliliter (μg/mL)) was added into a 96-well plate. […] Microbes (e.g., S. aureus, A. baumannii, E. coli, and/or P. aeruginosa) at exponential growth phases were diluted with […] (“MHB”) to about 10^5 colony forming units (“CFU”) per milliliter (CFU/mL), and 100 μL of diluted microbes were added into each well of the 96-well plate with 100 μL of antimicrobial polymer-antibiotic 306 mixture. The 96-well plate was incubated at 37 degrees Celsius (“° C.”) under shaking of 100 revolutions per minute (“rpm”) for about 18 to 20 hours. The concentration at which there was no bacterial growth observed by naked eyes or a microplate reader at 600 nanometers (nm) was recorded as the MIC. The checkerboard experiments were performed three times for each antimicrobial polymer-antibiotic 306 combination.

A. baumannii BAA-1709 [1] = type: cell-based, Acinetobacter baumannii; conditions: for MIC of pure antibiotic over 30 generations: antibiotic only; for Delay of resistance of the bacteria against the antibiotic: in the presence of example polycarbonate 200 at ¼×MICp
Procedure: To monitor development of antibiotic 306 resistance in A. baumannii, antibiotics 306 at sub-lethal doses were used in combination with the example polycarbonate 200 to repeatedly treat A. baumannii BAA-1709. With concentrations of the example polycarbonate 200 fixed at ¼ or ½×MIC, the MIC of antibiotics 306 was measured by the broth microdilution method. At half of the antibiotic 306 MIC, the survived bacteria, which reached logarithmic growth phase, were collected for MIC measurement of the subsequent passage. The development of antibiotic 306 resistance was monitored for 30 passages and the MIC of the antibiotics 306 at ¼ or ½×MIC of the antimicrobial polymer (e.g., characterized by the first chemical structure 100 and/or the second chemical structure 102) was recorded for each passage. The resistance development of antibiotics 306 only and polymer only was also evaluated over 30 passages.

E. coli = assay: Checkerboard / broth microdilution MIC; type: cell-based, Escherichia coli
Description: To evaluate antibacterial activity of antimicrobial polymer-antibiotic 306 combination therapies, the checkerboard method was used to create chart 400. By using this method, the minimum inhibitory concentration (“MIC”) of antibiotics 306, antimicrobial polymers (e.g., characterized by the first chemical structure 100 and/or the second chemical structure 102), and/or antibiotics 306/antimicrobial polymers (e.g., characterized by the first chemical structure 100 and/or the second chemical structure 102) combination at varying polymer concentrations can be determined. MIC was measured based on the broth microdilution method. 50 microliters (“μL”) of the example polycarbonate 200 at a serious of concentrations (micrograms per milliliter (μg/mL)) was added into a 96-well plate. […] Microbes (e.g., S. aureus, A. baumannii, E. coli, and/or P. aeruginosa) at exponential growth phases were diluted with […] (“MHB”) to about 10^5 colony forming units (“CFU”) per milliliter (CFU/mL), and 100 μL of diluted microbes were added into each well of the 96-well plate with 100 μL of antimicrobial polymer-antibiotic 306 mixture. […] The concentration at which there was no bacterial growth observed by naked eyes or a microplate reader at 600 nanometers (nm) was recorded as the MIC. […]

[2] = test system: antibiotic-resistant strains of bacteria (e.g., A. baumannii); assay: MIC against susceptible and antibiotic-resistant strains (table 700); type: cell-based, Acinetobacter baumannii
Description: In addition to antibiotic-susceptible bacteria, antibiotic-resistant strains of bacteria (e.g., indicated with a star in FIG. 7) were also employed to study the effect of antibiotic 306/example polycarbonate 200 combination on antibacterial activity.

A. baumannii strains = assay: Concentrations (1/2 MIC, MBC) for 18 h bactericidal plate test; type: cell-based; conditions: Acinetobacter baumannii; all the A. baumannii strains; used together with example polycarbonate 200 at ½ MIC; read-out: minimum bactericidal concentration (“MBC”)
Description: (§1) FIG. 13 illustrates a diagram of example, non-limiting table 1300 and/or table 1302, which can depict the synergistic effect of one or more combination therapies, which can comprise one or more antimicrobial polymers (e.g., characterized by the first chemical structure 100 and/or the second chemical structure 102) in combination with one or more antibiotics 306, against various bacteria (e.g., Gram-negative bacteria and/or Gram-positive bacteria) including antibiotic-resistant strains. Repetitive description of like elements employed in other embodiments described herein is omitted for sake of brevity.
(§2) Further, FIG. 13 illustrates a diagram of example, non-limiting photos 1304 of three-component plates with bacteria treated by example polycarbonate 200, rifampicin, and/or a combination thereof for 18 hours. […] The data and/or photos 1304 depicted in FIG. 13 can be representative of three biological replicates, with the “*” denoting antibiotic-resistant strains of bacteria.

E. aerogenes = assay: as above; type: cell-based; conditions: Klebsiella aerogenes, used together with example polycarbonate 200 at ½ MIC, read-out: minimum bactericidal concentration (“MBC”)
Description: as §1, §2

K. pneumoniae = assay: as above; type: cell-based; conditions: Klebsiella pneumoniae, used together with example polycarbonate 200 at ½ MIC, read-out: minimum bactericidal concentration (“MBC”)
Description: as §1, §2

A. baumannii BAA-1709 [3] = assay: Killing kinetics (CFU counting) under combination treatments; type: cell-based, Acinetobacter baumannii; conditions: rifampicin 0.008 μg/mL plus the labelled adjuvant at ½×MIC; up to 24 h
Description: To compare the efficiency of an antimicrobial polymer/rifampicin combination and an antimicrobial polymer/polymyxin combination, the CFU of A. baumannii BAA-1709 under different combination treatments were studied. […] The results of CFU counting are presented as mean±standard deviation of triplicate samples.

[4] = test system: A. baumannii (e.g., ATCC BAA-1709); assay: Bacterial count after 18 hours of treatment; type: cell-based, Acinetobacter baumannii; conditions: treatment for 18 hours; polymer 3.9 or 7.8 μg/mL (graph 1002)
Procedure: The results shown in graph 1002 were achieved after treatment for 18 hours.
Further, FIG. 11 illustrates a diagram of example, non-limiting graph 1102, graph 1110, and/or graph 1118, which can depict that one or more combination therapies comprising one or more antimicrobial polymers (e.g., characterized by the first chemical structure 100, such as example polycarbonate 200, and/or the second chemical structure 102) and one or more antibiotics 306 can show stronger synergistic bactericidal effect than traditional combination therapies as evidenced by the bacterial count after 18 hours of treating A. baumannii (e.g., ATCC BAA-1709).

[5] = repeated sub-MIC exposure, no polymer

CC1(C)S[C@@H]2[C@H](NC(=O)Cc3ccccc3)C(=O)N2[C@H]1C(=O)O [Penicillin G, Benzylpenicillin]
MIC of antibiotics 306 w/o polymer (A. baumannii (BAA-1709); antibiotic alone, no polymer): 62.5 µg/mL
Change of antibiotic MIC as polymer concentration increased from 1/16×MICp to ½×MICp (A. baumannii (BAA-1709)): significantly reduced
MIC of antibiotics 306 at 1/2 × MICp (A. baumannii (BAA-1709); with example polyionene 206 at 1/2 × MICp (MICp 7.8 μg/mL)): 7.8 µg/mL
MIC of antibiotics 306 at 1/4 × MICp (A. baumannii (BAA-1709); with example polyionene 206 at 1/4 × MICp (MICp 7.8 μg/mL)): 31.3 µg/mL
MIC of antibiotics 306 at 1/8 × MICp (A. baumannii (BAA-1709); with example polyionene 206 at 1/8 × MICp (MICp 7.8 μg/mL)): 62.5 µg/mL
MIC of antibiotics 306 at 1/16 × MICp (A. baumannii (BAA-1709); with example polyionene 206 at 1/16 × MICp (MICp 7.8 μg/mL)): 62.5 µg/mL
MIC of pure antibiotic over 30 generations (A. baumannii BAA-1709 [1]): increased
Delay of resistance of the bacteria against the antibiotic (A. baumannii BAA-1709 [1]): 22 generations
MIC of pure antibiotic at generation 5 (A. baumannii BAA-1709 [1]; [5]): 125 µg/mL
MIC of pure antibiotic at generation 30 (A. baumannii BAA-1709 [1]; [5]): 1000 µg/mL
MIC of pure antibiotic before resistance evolution (A. baumannii BAA-1709 [1]; starting value): 62.5 µg/mL

CC[C@H]1OC(=O)[C@H](C)[C@@H](O[C@H]2C[C@@](C)(OC)[C@@H](O)[C@H](C)O2)[C@H](C)[C@@H](O[C@@H]2O[C@H](C)C[C@H](N(C)C)[C@H]2O)[C@](C)(O)C[C@@H](C)CN(C)[C@H](C)[C@@H](O)[C@]1(C)O [azithromycin]
Change of antibiotic MIC as polymer concentration increased from 1/16×MICp to ½×MICp (A. baumannii (BAA-1709)): significantly reduced
Effect of example polycarbonate 200 on antibiotic potency (E. coli): enhance the potency
MIC of pure antibiotic over 30 generations (A. baumannii BAA-1709 [1]): increased
MIC of antibiotic over 30 generations in the presence of example polycarbonate 200 at ¼×MICp (A. baumannii BAA-1709 [1]; polymer fixed at ¼×MICp): did not change

CO[C@H]1/C=C/O[C@@]2(C)Oc3c(C)c(O)c4c(O)c(c(/C=N/N5CCN(C)CC5)c(O)c4c3C2=O)NC(=O)/C(C)=C\C=C\[C@H](C)[C@H](O)[C@@H](C)[C@@H](O)[C@@H](C)[C@H](OC(C)=O)[C@@H]1C [rifampicin]
MIC reduction compared with pure rifampicin (A. baumannii (BAA-1709); with example polycarbonate 200): over 2000 folds
MIC of antibiotic in the presence of the antimicrobial polymer at ¼×MICp (A. baumannii (BAA-1709); with example polycarbonate 200 at ¼×MICp (e.g., 4 μg/mL)): 0.13 µg/mL
MIC of antibiotic in the presence of the antimicrobial polymer at ½×MICp (A. baumannii (BAA-1709); with example polycarbonate 200 at ½×MICp (e.g., 8 μg/mL)): 0.002 µg/mL
MIC reduction at ½×MICp of the antimicrobial polymer (E. coli; with example polycarbonate 200 at ½×MICp): over 500 fold
MIC of rifampicin at antimicrobial polymer concentration of ¼×MICp ([2]; antibiotic-resistant strains, with example polycarbonate 200): 0.5 µg/mL
MIC reduction of rifampicin with polycarbonates of first chemical structure 100 ([2]; both susceptible and antibiotic-resistant A. baumannii strains): up to 2048 fold
Delay of resistance of the bacteria against the antibiotic (A. baumannii BAA-1709 [1]): 17 generations
MBC (A. baumannii strains): 0.015 µg/mL
MBC (E. aerogenes): 2 µg/mL
MBC (K. pneumoniae): 0.5 µg/mL

Polymyxin B
MIC of rifampicin at 1/2 × MIC of adjuvant (A. baumannii (BAA-1709)): 0.5 µg/mL
MIC of rifampicin at 1/4 × MIC of adjuvant (A. baumannii (BAA-1709)): 2.0 µg/mL
MIC of rifampicin at 1/8 × MIC of adjuvant (A. baumannii (BAA-1709)): 3.9 µg/mL
Bactericidal activity of rifampicin combined with adjuvant (CFU over time) (A. baumannii BAA-1709 [3]): no bactericidal activity over 24 h; also recorded: no bactericidal effect up to 24 hours

colistin
MIC of rifampicin at 1/2 × MIC of adjuvant (A. baumannii (BAA-1709)): 0.06 µg/mL
MIC of rifampicin at 1/4 × MIC of adjuvant (A. baumannii (BAA-1709)): 2.0 µg/mL
MIC of rifampicin at 1/8 × MIC of adjuvant (A. baumannii (BAA-1709)): 3.9 µg/mL
Bactericidal activity of rifampicin combined with adjuvant (CFU over time) (A. baumannii BAA-1709 [3]): no bactericidal activity over 24 h; also recorded: no bactericidal effect up to 24 hours
Effective dose of colistin as concentration of example polycarbonate 200 increases [4]: reduced
